Data: US20140045807A2, “THE USE OF 3-METHOXY-PREGNENOLONE FOR THE PREPARATION OF A DRUG FOR TREATING A TRAUMATIC BRAIN INJURY” (priority 2004, published 2014)

How the values were obtained:
[1] = tested on: CCI-injured animals; experiment: Histological analysis of the hippocampus size after CCI; assay type: in vivo, rat; settings: 10 mg/kg and 20 mg/kg, first injection 2 h after TBI, day 35
Procedure: FIG. 18: Size of the hippocampus of CCI-injured animals, receiving the first injection of MAP4343 (or vehicle) 2 h after TBI. Data are expressed in percentage of the non-injured hippocampus of Dose 0 (vehicle) animals. ***: p<0.001 Dose 0 injured vs non-injured hippocampus; $: p<0.05 vs Dose 0 injured hippocampus.
CCI was performed with an electromagnetic impact device as described (MyNeurolab, St. Louis, Mo.; Brody et al. 2007). Anesthesized rats were subjected to a single right lateral CCI, with the following parameters: impact centered 4.0 mm anterior to lambda and 4.5 mm […] of midline, within the craniotomy of the animal. The impact was set at a velocity of 4 m/s with a sustained depression of 200 ms, using a 5.0 mm tip.
Frozen sections were stained with cresyl violet. For each section analyzed, the size of the hippocampus was determined by first outlining all remaining tissue of each section taken at 500 μm intervals through the lesion (right hemisphere) or contra lateral hemisphere, thus providing a total tissue area (mm2) of the two hemispheres for each section. Then, the areas of sections were summed per hemisphere.

[2] = tested on: transgenic mice expressing the longest human tau protein isoform; experiment: RotaRod test in transgenic mice expressing the longest human tau protein isoform; assay type: in vivo, mouse; settings: subcutaneous implant releasing 0.38 mg of steroid per day for 90 days
Excerpt: FIG. 8: Effect of molecule 43B on the motor incoordination of transgenic mice expressing the longest isoform of human tau protein in their neurons. […] The maximum speed of rotation of the RotaRod drum before the […] falls is a measurement of motor coordination (higher values correspond to a better treatment effect).
In order to evaluate the therapeutic potential of 43B to treat Alzheimer-type neurodegenerative diseases, a homozygous transgenic line of mice, such as described by Götz (EMBO J. 1995; 14(7):1304-13), can be used.
These mice express the longest human tau protein isoform. They present symptoms of neurological dysfunction expressed as muscular weakness and a reduction in motor coordination which correlate histologically with the appearance of abnormal neurites and hyperphosphorylated tau proteins as is seen in Alzheimer's disease. This pathological phosphorylation decreases the affinity of tau for microtubules and favors its aggregation.
A breeding program was undertaken at Bicêtre and genotyping made it possible to select mice homozygous for the transgene. […] These implants released 0.38 mg of steroid per day for 90 days. The progression of motor incoordination was followed by repeated RotaRod tests.

[3] = tested on: Sprague Dawley rats in the FST; experiment: Forced swimming test (FST); assay type: in vivo, rat; settings: 10 mg/kg subcutaneously, 24, 5, 1 h before testing
Excerpt: (A) 3-methoxy-PREG (43B) decreased rat immobility in the FST showing antidepressant activity. Results are expressed as mean±SEM (n=6-14). One-way ANOVA: Treatment (F5, 46: 4.30 P<0.01). ***P<0.001, *P<0.05 vs. water and sesame oil (Fisher LSD test). […] Results are expressed as mean±SEM (n=6-14). One-way ANOVA: Treatment (F5, 46: 3.57 P<0.01). **P<0.01, *P<0.05 vs. water and sesame oil (Fisher LSD test). […] One-way ANOVA: Treatment (F5, 46: 3.57 P<0.01). **P<0.01, *P<0.05 vs. water and sesame oil (Fisher LSD test).
Drugs were administered following the traditional dosing regimen used in the FST consisting of three injections: 24, 5, 1 h before testing.
The FST is currently the most widely used animal model for assessing depression related behavior and antidepressant drug activity in rodents (Cryan et al., Neubiorev. 2005). Rats are placed in an inescapable cylinder of water where they develop an immobile posture believed to reflect a “depressive”-like state. The time rats spend immobile is decreased by drugs exerting antidepressant activity.
Additional behaviors can be detected in the FST; namely, climbing and swimming. It has been shown that swimming behavior is sensitive to SSRIs such as fluoxetine whereas climbing is sensitive to norepinephrine re-uptake inhibitors (NRI) such as desipramine.

[4] = tested on: α-tubulin forms (Tyr/Glu-Tub, Acet-Tub) in rat hippocampus; experiment: Microtubule dynamics in rat hippocampus after single administration; assay type: in vivo; settings: 10 mg/kg subcutaneously, 3 h following injection
Excerpt: Mean±SEM, n=6 per group. **p<0.01, *[…] vs sesame oil.
The effects produced by neurosteroids were compared with those produced by acute administration of the antidepressant drug fluoxetine (selective serotonin reuptake inhibitor; SSRI).

CO[C@H]1CC[C@@]2(C)C(=CC[C@H]3[C@@H]4CC[C@H](C(C)=O)[C@@]4(C)CC[C@@H]32)C1 [3-methoxy-PREG, 3β-methoxy-pregna-5-ene-20-one]
size of the injured hippocampus [1]: significantly increases the size of the injured hippocampus
motor dysfunction (RotaRod) [2]: beneficial effect on motor dysfunction
rat climbing behavior in the FST [3]: not changed
rat immobility in the FST [3]: significantly decreased
rat swimming in the FST [3]: significantly increased
Acet-Tub (marker of stable microtubules) [4]: significantly decreased
Tyr/Glu-Tub ratio (index of microtubule dynamics) [4]: significantly increased
